In patent publication US20240360081A1, “SULFONAMIDE OREXIN RECEPTOR AGONISTS AND USES THEREOF” (Jazz Pharmaceuticals Ireland Limited, priority 2021, published 2024):
pEC50: −log10 of the molar value.

Biological target: T1, human recombinant OX2 (hOX2) receptor expressed in CHO cells (Homo sapiens, UniProt O43614)
T1 construct: host or cells: CHO cells (hOX2-CHO)
T1 sequence (O43614 1-444): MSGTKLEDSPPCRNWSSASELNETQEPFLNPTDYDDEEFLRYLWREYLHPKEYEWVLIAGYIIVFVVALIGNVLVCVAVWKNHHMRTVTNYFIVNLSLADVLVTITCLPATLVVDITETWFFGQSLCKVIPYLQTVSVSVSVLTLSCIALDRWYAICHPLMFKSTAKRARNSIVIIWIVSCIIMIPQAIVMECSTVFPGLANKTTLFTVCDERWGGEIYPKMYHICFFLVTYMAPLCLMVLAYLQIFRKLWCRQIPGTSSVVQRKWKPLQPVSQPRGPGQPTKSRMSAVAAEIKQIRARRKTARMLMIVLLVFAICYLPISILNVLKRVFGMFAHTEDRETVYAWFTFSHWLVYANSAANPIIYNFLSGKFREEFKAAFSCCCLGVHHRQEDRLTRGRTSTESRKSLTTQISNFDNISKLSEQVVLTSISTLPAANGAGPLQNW
Assay: IP-1 accumulation assay (IP-One HTRF) in hOX2-CHO cells
Assay type: cell-based
Conditions: 60 min at 37° C., 11 points CRC, response as % of maximal OX-A response
Experimental: The accumulation of Inositol-1 Monophosphate (IP-1) was measured using IP-One HTRF® Terbium cryptate based assay (Cisbio) in human recombinant OX1 (hOX1) and at OX2 (hOX2) receptors expressed in CHO cells (DiscoverX) according to the manufacturer's instructions for cells tested in suspension.
hOX1-CHO and hOX2-CHO cells were seeded into white 384-well plates at a density of 20,000 cells/well in Hank's Balanced Salt Solution (HBSS) containing 20 mM HEPES pH 7.4, 50 mM, LiCl and 0.1% and Bovine Serum Albumin (BSA).
Compounds of the present disclosure were tested in a 11 points concentration response curve (CRC) serially diluted in neat DMSO at 200 fold concentrations and added by Echo acoustic liquid handling (Labcyte) to the cells (0.5% DMSO final in the assay). After 60 min of incubation at 37° C. detection reagents, IP1-d2 tracer and anti-IP1-cryptate were diluted in lysis buffer according to the manufacturer's descriptions and added to the cells.
Following 60 min incubation at room temperature, time-resolved fluorescence (HTRF) was measured at 615 nm and 665 nm by Envision Multilabel reader (Perkin Elmer) and the HTRF ratio (A665/A615x104) was calculated.
The IP-1 accumulation response was expressed as percentage of the maximal OX-A response.
Curve fitting and EC50 estimations were carried out using a four-parameter logistic model using XLfit Software. Mean data of EC50 are calculated from at least two independent experiments performed in duplicates.
In the Tables, below Category A corresponds to compounds displaying an […]<100 nM, Category B between 100 nM and 1,000 nM, Category C between 1,000 nM and 10,000 nM and Category D above 10,000 nM.

pEC50 | Compound
> 7.00 | Cc1cc(C(CNS(C)(=O)=O)CO[C@H]2CC[C@@H](c3cccc(F)c3)CC2)c(=O)n(C)c1 (single isomer, unassigned; isomer 1) [Example 5c, (R or S) N-[2-(1,5-dimethyl-2-oxo-1,2-dihydropyridin-3-yl)-3-{[(CIS)-4-(3-fluorophenyl)cyclohexyl]oxy}propyl]methanesulfonamide—Isomer 1]
> 7.00 | Cc1cc(C)[n+]([O-])c(C(CNS(C)(=O)=O)CO[C@H]2CC[C@@H](c3ccccc3)CC2)c1 (single isomer, unassigned; isomer 1) [Example 5k, (R or S) 2-[1-methanesulfonamido-3-{[(CIS)-4-phenylcyclohexyl]oxy}propan-2-yl]-4,6-dimethylpyridin-1-ium-1-olate—Isomer 1]
> 7.00 | Cc1cc(C(CNS(=O)(=O)CF)CO[C@H]2CC[C@@H](c3cccc(F)c3)CC2)c(=O)n(C)c1 (single isomer, unassigned; isomer 1) [Example 5n, (R or S) N-[2-(1,5-dimethyl-2-oxo-1,2-dihydropyridin-3-yl)-3-{[(CIS)-4-(3-fluorophenyl)cyclohexyl]oxy}propyl]-1-fluoromethanesulfonamide—Isomer 1]
> 7.00 | Cc1cc(C(CNS(=O)(=O)N(C)C)CO[C@H]2CC[C@@H](c3cccc(F)c3)CC2)c(=O)n(C)c1 (single isomer, unassigned; isomer 1) [Example 5r, (R or S) 3-[1-[(dimethylsulfamoyl)amino]-3-{[(CIS)-4-(3-fluorophenyl)cyclohexyl]oxy}propan-2-yl]-1,5-dimethyl-1,2-dihydropyridin-2-one—Isomer 1]
> 7.00 | Cc1cc(C(CNS(C)(=O)=O)CO[C@H]2CC[C@@H](c3cccc(F)c3)CC2)c(=O)n(C(F)F)c1 (single isomer, unassigned; isomer 1) [Example 5y, (R or S) N-[2-[1-(difluoromethyl)-5-methyl-2-oxo-1,2-dihydropyridin-3-yl]-3-{[(CIS)-4-(3-fluorophenyl)cyclohexyl]oxy}propyl]methanesulfonamide—Isomer 1]
< 5.00 | CS(=O)(=O)NCC(CO[C@H]1CC[C@@H](c2ccccc2)CC1)n1ccccc1=O (single isomer, unassigned; isomer 2) [Example 1b, (S or R) N-[2-(2-oxo-1,2-dihydropyridin-1-yl)-3-{[(CIS)-4-phenylcyclo-hexyl]oxy}propyl] methane-sulfonamide- Isomer 2]
6.00 to 7.00 | Cc1cccn(C(CNS(C)(=O)=O)CO[C@H]2CC[C@@H](c3ccccc3)CC2)c1=O (single isomer, unassigned; isomer 2) [Example 1e, (S or R) N-[(2R)-2-(3-methyl-2-oxo-1,2-dihydropyridin-1-yl)-3-{[(CIS)-4-phenylcyclo-hexyl]oxy}propyl] methane-sulfonamide- Isomer 2]
< 5.00 | Cc1ccn(C(CNS(C)(=O)=O)CO[C@H]2CC[C@@H](c3ccccc3)CC2)n1 (single isomer, unassigned; isomer 2) [Example 2ac, (S or R) N-[2-(3-methyl-1H-pyrazol-1-yl)-3-{[(CIS)-4-phenylcyclohexyl]oxy}propyl]methanesulfonamide-Isomer 2]
< 5.00 | Cc1ccnn1C(CNS(C)(=O)=O)CO[C@H]1CC[C@@H](c2ccccc2)CC1 (single isomer, unassigned; isomer 2) [Example 2ae, (S or R) N-[2-(5-methyl-1H-pyrazol-1-yl)-3-{[(CIS)-4-phenylcyclohexyl]oxy}propyl]methanesulfonamide-Isomer 2]
5.00 to 6.00 | Cc1cc(C)c(=O)n(C(CNS(C)(=O)=O)CO[C@H]2CC[C@@H](c3cccc(F)c3)CC2)c1 (single isomer, unassigned; isomer 2) [Example 2ag, (S or R) N-[2-(3,5-dimethyl-2-oxo-1,2-dihydropyridin-1-yl)-3-{[(CIS)-4-(3-fluorophenyl)cyclohexyl]oxy}propyl]methanesulfonamide-Isomer 2]
5.00 to 6.00 | Cc1cc(Cl)cn(C(CNS(C)(=O)=O)CO[C@H]2CC[C@@H](c3cccc(F)c3)CC2)c1=O (single isomer, unassigned; isomer 2) [Example 2ai, (S or R) N-[2-(5-chloro-3-methyl-2-oxo-1,2-dihydropyridin-1-yl)-3-{[(CIS)-4-(3-fluorophenyl)cyclohexyl]oxy}propyl]methanesulfonamide-Isomer 2]
5.00 to 6.00 | Cc1cc(C)c(=O)n(C(CNS(=O)(=O)C2CC2)CO[C@H]2CC[C@@H](c3cccc(F)c3)CC2)c1 (single isomer, unassigned; isomer 2) [Example 2an, (S or R) N-[2-(3,5-dimethyl-2-oxo-1,2-dihydropyridin-1-yl)-3-{[(CIS)-4-(3-fluorophenyl)cyclohexyl]oxy}propyl]cyclopropanesulfonamide-Isomer 2]
6.00 to 7.00 | Cc1cc(C)c(=O)n(C(CNS(=O)(=O)N(C)C)CO[C@H]2CC[C@@H](c3cccc(F)c3)CC2)c1 (single isomer, unassigned; isomer 2) [Example 2as, (S or R) 1-[1-[(dimethylsulfamoyl)amino]-3-{[(CIS)-4-(3-fluorophenyl)cyclohexyl]oxy}propan-2-yl]-3,5-dimethyl-1,2-dihydropyridin-2-one-Isomer 2]
6.00 to 7.00 | Cc1cc(C)c(=O)n(C(CNS(=O)(=O)CF)CO[C@H]2CC[C@@H](c3cccc(F)c3)CC2)c1 (single isomer, unassigned; isomer 2) [Example 2av, (S or R) N-[2-(3,5-dimethyl-2-oxo-1,2-dihydropyridin-1-yl)-3-{[(CIS)-4-(3-fluorophenyl)cyclohexyl]oxy}propyl]-1-fluoromethanesulfonamide-Isomer 2]
6.00 to 7.00 | CCc1cccn(C(CNS(C)(=O)=O)CO[C@H]2CC[C@@H](c3ccccc3)CC2)c1=O (single isomer, unassigned; isomer 2) [Example 2b, (S or R) N-[2-(3-ethyl-2-oxo-1,2-dihydropyridin-1-yl)-3-{[(CIS)-4-phenylcyclohexyl]oxy}propyl]methanesulfonamide-Isomer 2]
< 5.00 | Cc1cc(C)c(=O)n(C(CNS(C)(=O)=O)COC2CCN(c3ncc(F)cn3)CC2)c1 (single isomer, unassigned; isomer 2) [Example 2ba, (S or R) N-[2-(3,5-dimethyl-2-oxo-1,2-dihydropyridin-1-yl)-3-{[1-(5-fluoropyrimidin-2-yl)piperidin-4-yl]oxy}propyl]methanesulfonamide-Isomer 2]
< 5.00 | CS(=O)(=O)NCC(CO[C@H]1CC[C@@H](c2ccccc2)CC1)n1cccc(F)c1=O (single isomer, unassigned; isomer 2) [Example 2h, (S or R) N-[2-(3-fluoro-2-oxo-1,2-dihydropyridin-1-yl)-3-{[(CIS)-4-phenylcyclohexyl]oxy}propyl]methanesulfonamide-Isomer 2]
< 5.00 | Cc1ccc(=O)n(C(CNS(C)(=O)=O)CO[C@H]2CC[C@@H](c3ccccc3)CC2)c1 (single isomer, unassigned; isomer 2) [Example 2k, (S or R) N-[2-(5-methyl-2-oxo-1,2-dihydropyridin-1-yl)-3-{[(CIS)-4-phenylcyclohexyl]oxy}propyl]methanesulfonamide-Isomer 2]
